One block for each compound: values may come before it.
Tests used:
CDK2/Cyclin E1 = CDK2/Cyclin E1 (Homo sapiens (Human), UniProt P24941); test: biochemical; conditions: CDK2_Ki (nM), phosphorylated CDK2/Cyclin E1, 150 μM ATP, Morrison tight-binding fit
Description: The assay was initiated with the addition of ATP, following a fifteen minutes pre-incubation of enzyme and inhibitor at room temperature in the reaction mixture. The reaction was stopped after 45 minutes at room temperature by the addition of 50 μL of 80 mM EDTA, pH 7.5.

CDK6/Cyclin D1 = CDK6/Cyclin D1 (Homo sapiens (Human), UniProt Q00534); test: biochemical; conditions: CDK6_Ki (nM), non-phosphorylated CDK6/Cyclin D1, 2 mM ATP, Morrison fit
Sequence of CDK6/Cyclin D1 (Q00534 whole entry): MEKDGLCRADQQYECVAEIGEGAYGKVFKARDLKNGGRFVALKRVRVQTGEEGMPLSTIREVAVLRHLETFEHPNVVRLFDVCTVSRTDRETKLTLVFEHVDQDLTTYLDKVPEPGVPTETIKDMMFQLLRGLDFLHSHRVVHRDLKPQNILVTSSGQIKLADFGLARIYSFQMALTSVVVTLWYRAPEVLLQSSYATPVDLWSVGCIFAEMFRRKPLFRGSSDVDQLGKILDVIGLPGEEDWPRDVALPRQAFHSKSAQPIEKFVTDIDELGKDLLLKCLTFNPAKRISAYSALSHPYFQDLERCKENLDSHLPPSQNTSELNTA
Sequence of CDK6/Cyclin D1 (P24385 whole entry partner): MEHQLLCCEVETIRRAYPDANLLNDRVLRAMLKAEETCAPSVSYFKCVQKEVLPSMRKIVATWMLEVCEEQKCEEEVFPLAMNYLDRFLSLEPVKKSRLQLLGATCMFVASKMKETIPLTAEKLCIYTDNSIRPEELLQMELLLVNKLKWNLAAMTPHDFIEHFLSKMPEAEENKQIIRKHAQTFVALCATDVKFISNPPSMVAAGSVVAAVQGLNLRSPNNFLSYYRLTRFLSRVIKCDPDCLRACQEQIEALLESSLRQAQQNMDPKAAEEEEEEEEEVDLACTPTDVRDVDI

SMILES: Cc1cc2cnc(NC3CCN(S(=O)(=O)C(F)(F)F)CC3)nc2n([C@H]2CCC[C@]2(C)O)c1=O (single isomer, unassigned) [Example 182, (+)-8-[(1R*,2R*)-2-hydroxy-2-methylcyclopentyl]-6-methyl-2-({1-[(trifluoromethyl)sulfonyl]piperidin-4-yl}amino)pyrido[2,3-d]pyrimidin-7(8H)-one]
- Ki (CDK2/Cyclin E1): 12.6 nM
- Ki (CDK6/Cyclin D1): 9.5 nM

SMILES: C[C@@]1(O)CCC[C@H]1n1c(=O)ccc2cnc(NC3CCN(S(N)(=O)=O)CC3)nc21 (single isomer, unassigned) [Example 183, (−)-4-({8-[(1R*,2R*)-2-hydroxy-2-methylcyclopentyl]-7-oxo-7,8-dihydropyrido[2,3-d]pyrimidin-2-yl}amino)piperidine-1-sulfonamide]
- Ki (CDK2/Cyclin E1): 0.1 nM
- Ki (CDK6/Cyclin D1): 1.99 nM

SMILES: C[C@]1(O)CCC[C@@H]1n1c(=O)ccc2cnc(NC3CCN(S(N)(=O)=O)CC3)nc21 (single isomer, unassigned) [Example 184, (+)-4-({8-[(1R*,2R*)-2-hydroxy-2-methylcyclopentyl]-7-oxo-7,8-dihydropyrido[2,3-d]pyrimidin-2-yl}amino)piperidine-1-sulfonamide]
- Ki (CDK2/Cyclin E1): 1.46 nM
- Ki (CDK6/Cyclin D1): 11.8 nM

SMILES: C[C@@]1(O)CCC[C@H]1n1c(=O)c(CO)cc2cnc(NC3CCN(S(C)(=O)=O)CC3)nc21 (single isomer, unassigned) [Example 185, (−)-6-(hydroxymethyl)-8-[(1R*,2R*)-2-hydroxy-2-methylcyclopentyl]-2-{[1-(methylsulfonyl)piperidin-4-yl]amino}pyrido[2,3-d]pyrimidin-7(8H)-one]
- Ki (CDK2/Cyclin E1): 0.43 nM
- Ki (CDK6/Cyclin D1): 0.38 nM

SMILES: C[C@]1(O)CCC[C@@H]1n1c(=O)c(CO)cc2cnc(NC3CCN(S(C)(=O)=O)CC3)nc21 (single isomer, unassigned) [Example 186, (+)-6-(hydroxymethyl)-8-[(1R*,2R*)-2-hydroxy-2-methylcyclopentyl]-2-{[1-(methylsulfonyl)piperidin-4-yl]amino}pyrido[2,3-d]pyrimidin-7(8H)-one]
- Ki (CDK2/Cyclin E1): 5.65 nM
- Ki (CDK6/Cyclin D1): 3.62 nM

SMILES: C[C@@]1(O)CCC[C@H]1n1c(=O)c(C(F)F)cc2cnc(NC3CCN(S(N)(=O)=O)CC3)nc21 (single isomer, unassigned) [Example 187, (−)-4-({6-(difluoromethyl)-8-[(1R*,2R*)-2-hydroxy-2-methylcyclopentyl]-7-oxo-7,8-dihydropyrido[2,3-d]pyrimidin-2-yl}amino)piperidine-1-sulfonamide]
- Ki (CDK2/Cyclin E1): 0.08 nM
- Ki (CDK6/Cyclin D1): 0.29 nM

SMILES: C[C@]1(O)CCC[C@@H]1n1c(=O)c(C(F)F)cc2cnc(NC3CCN(S(N)(=O)=O)CC3)nc21 (single isomer, unassigned) [Example 188, (+)-4-({6-(difluoromethyl)-8-[(1R*,2R*)-2-hydroxy-2-methylcyclopentyl]-7-oxo-7,8-dihydropyrido[2,3-d]pyrimidin-2-yl}amino)piperidine-1-sulfonamide]
- Ki (CDK2/Cyclin E1): 0.7 nM
- Ki (CDK6/Cyclin D1): 2.4 nM

SMILES: C[C@@]1(O)CCC[C@H]1n1c(=O)c(Cl)cc2cnc(N[C@H]3CCN(S(C)(=O)=O)C[C@H]3F)nc21 (single isomer, unassigned) [Example 191, (−)-6-chloro-2-{[(3R*,4S*)-3-fluoro-1-(methylsulfonyl)piperidin-4-yl]amino}-8-[(1R,2R)-2-hydroxy-2-methylcyclopentyl]pyrido[2,3-d]pyrimidin-7(8H)-one]
- Ki (CDK2/Cyclin E1): 0.4 nM
- Ki (CDK6/Cyclin D1): 0.58 nM

SMILES: C[C@@]1(O)CCC[C@H]1n1c(=O)c(Cl)cc2cnc(N[C@@H]3CCN(S(C)(=O)=O)C[C@@H]3F)nc21 (single isomer, unassigned) [Example 192, (+)-6-chloro-2-{[(3R*,4S*)-3-fluoro-1-(methylsulfonyl)piperidin-4-yl]amino}-8-[(1R,2R)-2-hydroxy-2-methylcyclopentyl]pyrido[2,3-d]pyrimidin-7(8H)-one]
- Ki (CDK2/Cyclin E1): 20.9 nM
- Ki (CDK6/Cyclin D1): 10.1 nM

SMILES: CC[C@@]1(O)CCC[C@H]1n1c(=O)ccc2cnc(NC3CCN(S(C)(=O)=O)CC3)nc21 (single isomer, unassigned) [Example 193, (−)-(8-[(1R*,2R*)-2-ethyl-2-hydroxycyclopentyl]-2-{[1-(methylsulfonyl)piperidin-4-yl]amino}pyrido[2,3-d]pyrimidin-7(8H)-one]
- Ki (CDK2/Cyclin E1): 2.55 nM
- Ki (CDK6/Cyclin D1): 2.27 nM

SMILES: CC[C@@]1(O)CCC[C@H]1n1c(=O)c(Cl)cc2cnc(NC3CCN(S(C)(=O)=O)CC3)nc21 (single isomer, unassigned) [Example 195, (−)-6-chloro-8-[(1R*,2R*)-2-ethyl-2-hydroxycyclopentyl]-2-{[1-(methylsulfonyl)piperidin-4-yl]amino}pyrido[2,3-d]pyrimidin-7(8H)-one]
- Ki (CDK2/Cyclin E1): 5.49 nM
- Ki (CDK6/Cyclin D1): 4.68 nM

SMILES: CC[C@]1(O)CCC[C@@H]1n1c(=O)c(Cl)cc2cnc(NC3CCN(S(C)(=O)=O)CC3)nc21 (single isomer, unassigned) [Example 196, (+)-6-chloro-8-[(1R*,2R*)-2-ethyl-2-hydroxycyclopentyl]-2-{[1-(methylsulfonyl)piperidin-4-yl]amino}pyrido[2,3-d]pyrimidin-7(8H)-one]
- Ki (CDK2/Cyclin E1): 5.72 nM
- Ki (CDK6/Cyclin D1): 3.84 nM

SMILES: Cc1cc2cnc(NC3CCN(S(C)(=O)=O)CC3)nc2n([C@@H]2COC[C@@]2(C)O)c1=O (single isomer, unassigned) [Example 197, (−)-8-[(3R*,4S*)-4-hydroxy-4-methyltetrahydrofuran-3-yl]-6-methyl-2-{[1-(methylsulfonyl)piperidin-4-yl]amino}pyrido[2,3-d]pyrimidin-7(8H)-one]
- Ki (CDK2/Cyclin E1): 4.26 nM
- Ki (CDK6/Cyclin D1): 4.78 nM

SMILES: Cc1cc2cnc(NC3CCN(S(C)(=O)=O)CC3)nc2n([C@H]2COC[C@]2(C)O)c1=O (single isomer, unassigned) [Example 198, (+)-8-[(3R*,4S*)-4-hydroxy-4-methyltetrahydrofuran-3-yl]-6-methyl-2-{[1-(methylsulfonyl)piperidin-4-yl]amino}pyrido[2,3-d]pyrimidin-7(8H)-one]
- Ki (CDK2/Cyclin E1): 26.9 nM
- Ki (CDK6/Cyclin D1): 31 nM

SMILES: Cc1cc2cnc(NC3CCN(S(C)(=O)=O)CC3)nc2n([C@@H]2C[C@H](O)C[C@@H]2C)c1=O (single isomer, unassigned) [Example 199, (−)-8-[(1R*,2S*,4R*)-4-hydroxy-2-methylcyclopentyl]-6-methyl-2-{[1-(methylsulfonyl)piperidin-4-yl]amino}pyrido[2,3-d]pyrimidin-7(8H)-one]
- Ki (CDK2/Cyclin E1): 2.92 nM
- Ki (CDK6/Cyclin D1): 1.09 nM

SMILES: Cc1cc2cnc(NC3CCN(S(C)(=O)=O)CC3)nc2n([C@H]2C[C@@H](O)C[C@H]2C)c1=O (single isomer, unassigned) [Example 200, (+)-8-[(1R*,2S*,4R*)-4-hydroxy-2-methylcyclopentyl]-6-methyl-2-{[1-(methylsulfonyl)piperidin-4-yl]amino}pyrido[2,3-d]pyrimidin-7(8H)-one]
- Ki (CDK2/Cyclin E1): 9.51 nM
- Ki (CDK6/Cyclin D1): 4.72 nM

Next, values leading:

- Ki (CDK2/Cyclin E1): 4.01 nM
- Ki (CDK6/Cyclin D1): 5.37 nM
SMILES: CC[C@]1(O)CCC[C@@H]1n1c(=O)ccc2cnc(NC3CCN(S(C)(=O)=O)CC3)nc21 (single isomer, unassigned) [Example 194, (+)-(8-[(1R*,2R*)-2-ethyl-2-hydroxycyclopentyl]-2-{[1-(methylsulfonyl)piperidin-4-yl]amino}pyrido[2,3-d]pyrimidin-7(8H)-one]

- Ki (CDK2/Cyclin E1): 0.12 nM
- Ki (CDK6/Cyclin D1): 0.85 nM
SMILES: C[C@@H]1[C@H](O)CC[C@H]1n1c(=O)ccc2cnc(NC3CCN(S(C)(=O)=O)CC3)nc21 (single isomer, unassigned) [Example 201, (−)-8-[(1R*,2S*,3R*)-3-hydroxy-2-methylcyclopentyl]-2-{[1-(methylsulfonyl)piperidin-4-yl]amino}pyrido[2,3-d]pyrimidin-7(8H)-one]

- Ki (CDK2/Cyclin E1): 0.8 nM
- Ki (CDK6/Cyclin D1): 2.44 nM
SMILES: C[C@H]1[C@@H](O)CC[C@@H]1n1c(=O)ccc2cnc(NC3CCN(S(C)(=O)=O)CC3)nc21 (single isomer, unassigned) [Example 202, (+)-8-[(1R*,2S*,3R*)-3-hydroxy-2-methylcyclopentyl]-2-{[1-(methylsulfonyl)piperidin-4-yl]amino}pyrido[2,3-d]pyrimidin-7(8H)-one]

- Ki (CDK2/Cyclin E1): 0.51 nM
- Ki (CDK6/Cyclin D1): 1.53 nM
SMILES: C[C@@H]1[C@H](O)CC[C@H]1n1c(=O)c(Cl)cc2cnc(NC3CCN(S(C)(=O)=O)CC3)nc21 (single isomer, unassigned) [Example 203, (−)-6-chloro-8-[(1R*,2S*,3R*)-3-hydroxy-2-methylcyclopentyl]-2-{[1-(methylsulfonyl)piperidin-4-yl]amino}pyrido[2,3-d]pyrimidin-7(8H)-one]

- Ki (CDK2/Cyclin E1): 0.51 nM
- Ki (CDK6/Cyclin D1): 0.18 nM
SMILES: C[C@@H]1[C@H](O)CC[C@H]1n1c(=O)c(C(F)F)cc2cnc(NC3CCN(S(C)(=O)=O)CC3)nc21 (single isomer, unassigned) [Example 204, (−)-6-(difluoromethyl)-8-[(1R*,2S*,3R*)-3-hydroxy-2-methylcyclopentyl]-2-{[1-(methylsulfonyl)piperidin-4-yl]amino}pyrido[2,3-d]pyrimidin-7(8H)-one]

- Ki (CDK2/Cyclin E1): 5.22 nM
- Ki (CDK6/Cyclin D1): 1.27 nM
SMILES: C[C@H]1[C@@H](O)CC[C@@H]1n1c(=O)c(C(F)F)cc2cnc(NC3CCN(S(C)(=O)=O)CC3)nc21 (single isomer, unassigned) [Example 205, (+)-6-(difluoromethyl)-8-[(1 R*,2S*,3R*)-3-hydroxy-2-methylcyclopentyl]-2-{[1-(methylsulfonyl)piperidin-4-yl]amino}pyrido[2,3-d]pyrimidin-7(8H)-one]

- Ki (CDK2/Cyclin E1): 0.5 nM
- Ki (CDK6/Cyclin D1): 0.75 nM
SMILES: C[C@@H]1[C@@H](O)CC[C@@H]1n1c(=O)ccc2cnc(NC3CCN(S(C)(=O)=O)CC3)nc21 (single isomer, unassigned) [Example 209, (+)-8-[(1R*,2R*,3R*)-3-hydroxy-2-methylcyclopentyl]-2-{[1-(methylsulfonyl)piperidin-4-yl]amino}pyrido[2,3-d]pyrimidin-7(8H)-one]

- Ki (CDK2/Cyclin E1): 5.36 nM
- Ki (CDK6/Cyclin D1): 3.15 nM
SMILES: C[C@H]1[C@H](O)CC[C@H]1n1c(=O)ccc2cnc(NC3CCN(S(C)(=O)=O)CC3)nc21 (single isomer, unassigned) [Example 210, (−)-8-[(1R*,2R*,3R*)-3-hydroxy-2-methylcyclopentyl]-2-{[1-(methylsulfonyl)piperidin-4-yl]amino}pyrido[2,3-d]pyrimidin-7(8H)-one]
